Measurements as given in ChEMBL document CHEMBL3885861, “Open TG-GATES”.

Species: Rattus norvegicus
Test: Open TG-GATES - Regimen: Single
Type: toxicity, organism-based, Sprague-Dawley
Design: regimen Single, gender Male, age 6 weeks
Conditions: in vivo, po, route gavage; for APTT / Bas / Eos / Fbg / Hb / Ht / Lym / MCH / MCHC / MCV / Mono / Neu / PT / Plat / RBC / Ret / WBC: tissue Blood; for KIDNEY_L / KIDNEY_R / KIDNEY_TOTAL: tissue Kidney; for LIVER: tissue Liver; for A/G / ALP / ALT / AST / BUN / CRE / Ca / Cl / DBIL / GLC / IP / K / LDH / Na / PL / RALB / TBIL / TC / TG / TP / gamma-GTP: tissue Plasma
[1] = 1200 mg/kg, 3 h, dose level Middle
[2] = 1200 mg/kg, 6 h, dose level Middle
[3] = 1200 mg/kg, 9 h, dose level Middle
[4] = 1200 mg/kg, 24 h, dose level Middle
[5] = 4000 mg/kg, 3 h, dose level High
[6] = 4000 mg/kg, 6 h, dose level High
[7] = 4000 mg/kg, 9 h, dose level High
[8] = 4000 mg/kg, 24 h, dose level High

## CCO [ALCOHOL]
[1]
  TERMINAL_BW: 203.8 g
  APTT: 18.7 s
  Bas: 0%
  Eos: 1%
  Fbg: 200 mg/dL
  Hb: 13.2 g/dL
  Ht: 39.1%
  Lym: 72%
  MCH: 22.1 pg
  MCHC: 33.7%
  MCV: 65.5 fL
  Mono: 5.6%
  Neu: 21.6%
  PT: 12.4 s
  Plat: 108.6 x10_4/uL
  RBC: 596.8 x10_4/ul
  Ret: 8.1%
  WBC: 95.6 x10_2/uL
  KIDNEY_L: 0.9 g
  KIDNEY_R: 1 g
  KIDNEY_TOTAL: 1.9 g
  LIVER: 9.2 g
  A/G: 2.8
  ALP: 973.6 IU/L
  ALT: 38 IU/L
  AST: 69.8 IU/L
  BUN: 9 mg/dL
  CRE: 0.5 mg/dL
  Ca: 10.7 mg/dL
  Cl: 104.6 meq/L
  DBIL: 0.016 mg/dL
  GLC: 204.4 mg/dL
  IP: 8.9 mg/dL
  K: 4.5 meq/L
  LDH: 121.2 IU/L
  Na: 140 meq/L
  PL: 138 mg/dL
  RALB: 3.8 g/dL
  TBIL: 0.4 mg/dL
  TC: 74.8 mg/dL
  TG: 60.8 mg/dL
  TP: 5.2 g/dL
  gamma-GTP: 1.2 IU/L
[2]
  TERMINAL_BW: 203.8 g
  APTT: 17.5 s
  Bas: 0%
  Eos: 1.2%
  Fbg: 196.6 mg/dL
  Hb: 13.3 g/dL
  Ht: 39.9%
  Lym: 67%
  MCH: 21.7 pg
  MCHC: 33.3%
  MCV: 65 fL
  Mono: 12%
  Neu: 19.4%
  PT: 12.2 s
  Plat: 98.4 x10_4/uL
  RBC: 615.4 x10_4/ul
  Ret: 13.5%
  WBC: 87.4 x10_2/uL
  KIDNEY_L: 0.9 g
  KIDNEY_R: 1 g
  KIDNEY_TOTAL: 1.9 g
  LIVER: 9.2 g
  A/G: 2.4
  ALP: 827.2 IU/L
  ALT: 36 IU/L
  AST: 71 IU/L
  BUN: 11.4 mg/dL
  CRE: 0.5 mg/dL
  Ca: 10.5 mg/dL
  Cl: 105.2 meq/L
  DBIL: 0.066 mg/dL
  GLC: 203 mg/dL
  IP: 10.3 mg/dL
  K: 4.6 meq/L
  LDH: 87 IU/L
  Na: 140.8 meq/L
  PL: 132.4 mg/dL
  RALB: 3.8 g/dL
  TBIL: 0.4 mg/dL
  TC: 69.2 mg/dL
  TG: 59.4 mg/dL
  TP: 5.3 g/dL
  gamma-GTP: 1.8 IU/L
[3]
  TERMINAL_BW: 201.5 g
  APTT: 17.2 s
  Bas: 0%
  Eos: 1.6%
  Fbg: 204.2 mg/dL
  Hb: 13.5 g/dL
  Ht: 40.2%
  Lym: 73%
  MCH: 21.2 pg
  MCHC: 33.5%
  MCV: 63.3 fL
  Mono: 7.4%
  Neu: 18.2%
  PT: 12.1 s
  Plat: 114.7 x10_4/uL
  RBC: 635.8 x10_4/ul
  Ret: 9.9%
  WBC: 73.2 x10_2/uL
  KIDNEY_L: 0.9 g
  KIDNEY_R: 0.9 g
  KIDNEY_TOTAL: 1.9 g
  LIVER: 8.4 g
  A/G: 2.8
  ALP: 845 IU/L
  ALT: 28.8 IU/L
  AST: 61.6 IU/L
  BUN: 11 mg/dL
  CRE: 0.5 mg/dL
  Ca: 10.9 mg/dL
  Cl: 105.8 meq/L
  DBIL: 0.042 mg/dL
  GLC: 192 mg/dL
  IP: 10.7 mg/dL
  K: 4.7 meq/L
  LDH: 102 IU/L
  Na: 136.4 meq/L
  PL: 132.2 mg/dL
  RALB: 4.1 g/dL
  TBIL: 0.4 mg/dL
  TC: 71.6 mg/dL
  TG: 35 mg/dL
  TP: 5.6 g/dL
  gamma-GTP: 1.4 IU/L
[4]
  TERMINAL_BW: 217.4 g
  APTT: 17.6 s
  Bas: 0%
  Eos: 1.2%
  Fbg: 207.2 mg/dL
  Hb: 13.2 g/dL
  Ht: 39.2%
  Lym: 73.4%
  MCH: 21.8 pg
  MCHC: 33.6%
  MCV: 64.9 fL
  Mono: 9.2%
  Neu: 16.4%
  PT: 11.4 s
  Plat: 113.3 x10_4/uL
  RBC: 604.6 x10_4/ul
  Ret: 10.6%
  WBC: 106.7 x10_2/uL
  KIDNEY_L: 1 g
  KIDNEY_R: 1 g
  KIDNEY_TOTAL: 1.9 g
  LIVER: 10.5 g
  A/G: 2.6
  ALP: 909 IU/L
  ALT: 37.8 IU/L
  AST: 64.8 IU/L
  BUN: 21.2 mg/dL
  CRE: 0.5 mg/dL
  Ca: 11 mg/dL
  Cl: 103.6 meq/L
  DBIL: 0 mg/dL
  GLC: 188 mg/dL
  IP: 8.8 mg/dL
  K: 4.9 meq/L
  LDH: 109.8 IU/L
  Na: 138.8 meq/L
  PL: 159.4 mg/dL
  RALB: 4 g/dL
  TBIL: 0.3 mg/dL
  TC: 83.6 mg/dL
  TG: 101.8 mg/dL
  TP: 5.6 g/dL
  gamma-GTP: 1 IU/L
[5]
  TERMINAL_BW: 206.9 g
  APTT: 17.9 s
  Bas: 0%
  Eos: 1.6%
  Fbg: 188.4 mg/dL
  Hb: 13.4 g/dL
  Ht: 40.1%
  Lym: 78%
  MCH: 21.9 pg
  MCHC: 33.4%
  MCV: 65.6 fL
  Mono: 7.2%
  Neu: 13.8%
  PT: 12.2 s
  Plat: 110.6 x10_4/uL
  RBC: 612.2 x10_4/ul
  Ret: 9.9%
  WBC: 86.8 x10_2/uL
  KIDNEY_L: 1 g
  KIDNEY_R: 1 g
  KIDNEY_TOTAL: 1.9 g
  LIVER: 9.6 g
  A/G: 2.5
  ALP: 733.4 IU/L
  ALT: 35.2 IU/L
  AST: 65.8 IU/L
  BUN: 8.8 mg/dL
  CRE: 0.5 mg/dL
  Ca: 10.3 mg/dL
  Cl: 104.4 meq/L
  DBIL: 0.02 mg/dL
  GLC: 212.4 mg/dL
  IP: 9.1 mg/dL
  K: 4.7 meq/L
  LDH: 106.2 IU/L
  Na: 139.8 meq/L
  PL: 148.4 mg/dL
  RALB: 3.8 g/dL
  TBIL: 0.4 mg/dL
  TC: 79.8 mg/dL
  TG: 77.8 mg/dL
  TP: 5.3 g/dL
  gamma-GTP: 1.8 IU/L
[6]
  TERMINAL_BW: 206.9 g
  APTT: 19.1 s
  Bas: 0%
  Eos: 1.2%
  Fbg: 205 mg/dL
  Hb: 13.5 g/dL
  Ht: 40.4%
  Lym: 81%
  MCH: 21.3 pg
  MCHC: 33.4%
  MCV: 63.9 fL
  Mono: 4.6%
  Neu: 13.4%
  PT: 11.8 s
  Plat: 112.3 x10_4/uL
  RBC: 632.8 x10_4/ul
  Ret: 13.6%
  WBC: 124.9 x10_2/uL
  KIDNEY_L: 1 g
  KIDNEY_R: 1 g
  KIDNEY_TOTAL: 1.9 g
  LIVER: 9.6 g
  A/G: 2.3
  ALP: 839.4 IU/L
  ALT: 31 IU/L
  AST: 59.4 IU/L
  BUN: 8.6 mg/dL
  CRE: 0.5 mg/dL
  Ca: 10.4 mg/dL
  Cl: 104.2 meq/L
  DBIL: 0.078 mg/dL
  GLC: 204.6 mg/dL
  IP: 9.7 mg/dL
  K: 5 meq/L
  LDH: 78 IU/L
  Na: 139 meq/L
  PL: 153.6 mg/dL
  RALB: 3.7 g/dL
  TBIL: 0.4 mg/dL
  TC: 82.6 mg/dL
  TG: 46 mg/dL
  TP: 5.4 g/dL
  gamma-GTP: 1.4 IU/L
[7]
  TERMINAL_BW: 200.3 g
  APTT: 17.6 s
  Bas: 0%
  Eos: 1%
  Fbg: 205.2 mg/dL
  Hb: 13.5 g/dL
  Ht: 40.5%
  Lym: 76.4%
  MCH: 21.8 pg
  MCHC: 33.4%
  MCV: 65.3 fL
  Mono: 7%
  Neu: 15.6%
  PT: 12 s
  Plat: 107.8 x10_4/uL
  RBC: 621.6 x10_4/ul
  Ret: 9.9%
  WBC: 72.9 x10_2/uL
  KIDNEY_L: 0.9 g
  KIDNEY_R: 1 g
  KIDNEY_TOTAL: 1.9 g
  LIVER: 8.2 g
  A/G: 2.7
  ALP: 857.6 IU/L
  ALT: 30.6 IU/L
  AST: 65.8 IU/L
  BUN: 12.8 mg/dL
  CRE: 0.4 mg/dL
  Ca: 10.8 mg/dL
  Cl: 105.6 meq/L
  DBIL: 0.04 mg/dL
  GLC: 190.8 mg/dL
  IP: 10 mg/dL
  K: 5 meq/L
  LDH: 96.4 IU/L
  Na: 137 meq/L
  PL: 154 mg/dL
  RALB: 4.1 g/dL
  TBIL: 0.4 mg/dL
  TC: 79.8 mg/dL
  TG: 49 mg/dL
  TP: 5.6 g/dL
  gamma-GTP: 1.4 IU/L
[8]
  TERMINAL_BW: 210.8 g
  APTT: 16.5 s
  Bas: 0%
  Eos: 2%
  Fbg: 202 mg/dL
  Hb: 13.8 g/dL
  Ht: 40.7%
  Lym: 70.4%
  MCH: 21.5 pg
  MCHC: 33.8%
  MCV: 63.5 fL
  Mono: 11.4%
  Neu: 16.4%
  PT: 11.8 s
  Plat: 115.4 x10_4/uL
  RBC: 640.6 x10_4/ul
  Ret: 10.2%
  WBC: 84.1 x10_2/uL
  KIDNEY_L: 0.9 g
  KIDNEY_R: 1 g
  KIDNEY_TOTAL: 1.9 g
  LIVER: 9.5 g
  A/G: 2.6
  ALP: 971 IU/L
  ALT: 41.8 IU/L
  AST: 68.2 IU/L
  BUN: 17.6 mg/dL
  CRE: 0.5 mg/dL
  Ca: 10.9 mg/dL
  Cl: 103.4 meq/L
  DBIL: 0.014 mg/dL
  GLC: 200.4 mg/dL
  IP: 8.5 mg/dL
  K: 4.9 meq/L
  LDH: 102.6 IU/L
  Na: 138 meq/L
  PL: 155 mg/dL
  RALB: 4 g/dL
  TBIL: 0.3 mg/dL
  TC: 80.8 mg/dL
  TG: 109.8 mg/dL
  TP: 5.5 g/dL
  gamma-GTP: 1.2 IU/L
